Test results taken from patent EP0300806A1, “Opioid analgesic liposomal delivery-release system” (VESTAR, INC., priority 1987, dated 1989).
Structures can show the parent of a compound that is named as a salt.

How the values were obtained:
[1] = system: phenylquinone-induced writhing; experiment: phenylquinone-induced writhing assay, analgesia after i.m. injection; assay type: in vivo, Mice
Experimental: Duration of analgesia was evaluated using the phenylquinone-induced writhing assay essentially as described by Pircio et al. R.W. Pircio, J.A. Gylys, R.L. Cavanagh, J.P. Buyniski and M.E. Bierwagen, 220 Archives Internationales de Pharmacodynamie et de Therapie, 231-57 (1976). Mice were given intraperitoneal injections of 0.025% (w/v) phenyl-p-quinone in 5% ethanol (2.5 mg/kg). […] The writhing phenomenon has been described by Siegmund et al. E. Siegmund, R. Cadmus, G. Lu, 95 Proceedings of the Society for Experimental Biology and Medicine, 729-31 (1957). Five animals per observer was established as a manageable procedure yielding values which were reproducible and consistent from observer to observer. […]
The dose required for single injection ED₅₀ and ED₁₀₀ of free butorphanol tartrate was determined by administering various doses of free drug intramuscularly 15 minutes prior to the i.p. injections of phenylquinone. […] The ED₅₀ and ED₁₀₀ values determined in this study were compared for agreement with reported literature values and used along with control values as a reference standard for each study. […]
Extended analgesia studies were conducted using no fewer than 50 animals per treatment group. […] The times at which analgesic effect was measured were based on the particular treatment and on the results of the previous bioassays for the treatment group.

[2] = system: phenylquinone-induced writhing; experiment: tolerance (tachyphylaxis) studies: shift of ED50 of free butorphanol tartrate in the writhing assay after pretreatment; assay type: in vivo, mice

Oc1ccc2c(c1)C13CCCCC1(O)C(C2)N(CC1CCC1)CC3 (stereo not drawn) [free butorphanol tartrate, butorphanol tartrate]
effect of higher doses on duration of analgesia ([1]; 2 ug, 50 ug and 500 ug dose curves, Fig. 1): do not provide extended efficacy
ED50 ([1]; Mus musculus, im, 0.25 h, untreated mice, single i.m. injection of free drug 15 minutes prior to i.p. phenylquinone, read-out: ED₅₀): 0.05 mg/kg
36 hr. ED₅₀ ([2]; 5 injections of 100 ug/kg at 3 hr. intervals, second protocol, Fig. 6): suggestive of recovery from tachyphylaxis
ED50 ([2]; Mus musculus, im, after four i.m. injections of 50 ul saline at 3 hr. intervals, determined 13 hrs. after start, read-out: ED₅₀ for free butorphanol tartrate after multiple injections of saline): ~0.125 mg/kg
increase in ED₅₀ values between no treatment animals and multiple injection animals ([2]; after 4 injections of the ED₁₀₀ dose at 3 hr. intervals, first protocol, Fig. 2): 4-5 fold
shift of ED₅₀ relative to its initial value ([2]; pretreatment with 4 injections of 100 ug/kg, Fig. 4 bottom panel): approximately 4 times its initial value
